Read-outs that look alike come from different tables or passages of the source. Values belong to the molecule of their own block, whether it stands above or below them.
Assays:
[1] = test system: HCT116 (human colon carcinoma cells); experiment: Tumor cell proliferation inhibition test, CCK-8 method (Example 19); format: cell-based
Method: (§1) A part of the compounds prepared in the examples of the present disclosure were subjected to a tumor cell proliferation inhibition test by using a CCK-8 method. A cell line HCT116 (human colon carcinoma cells) and SW1990 (human pancreatic carcinoma cells) were purchased from Shanghai Meixuan Technology Co., Ltd. Samples (a part of the compounds prepared in the examples) were dissolved in DMSO (Merck), prepared into a concentration of 10 mM, and finally triply diluted in DMEM or McCoy's 5A 1640 medium to 8 concentration gradients. A cell culture solution was collected when a cell culture met a test requirement, 10 μL of the cell culture solution was uniformly coated on a cell counting plate, cells were counted for 3 times under a microscope, and a cell density was calculated by taking an average value; and a 96-well plate (Corning, #3599) was taken, 200 μL of the cell culture solution was added into each well for cell inoculation at a cell concentration of 6×10^3 cells per well, and the inoculated 96-well plate was incubated in a cell incubator containing 5% CO2 at 37° C. for 24 h. An old culture medium was removed by suction, 200 μL of the triply diluted sample DMEM or McCoy's 5A 1640 medium at an initial concentration of 10 μmol/L was added to each well, the DMSO content was controlled to be 1%, three duplicate wells were set, PBS was used as a blank control, and the plate was incubated in the incubator for 72 h. The original DMEM or McCoy's 5A 1640 medium in the 96-well plate and a PBS buffer in a final row were sucked out, a prepared CCK-8 solution (90% DMEM or McCoy's 5A 1640 medium+10% CCK-8) was added, the mixture was incubated in an incubator, and an absorbance was read by using a Biotek microplate reader. Cell growth inhibition rate IC %=(blank control well OD value−administration well OD value)/blank control well OD value×100%.

[2] = test system: SW1990 (human pancreatic carcinoma cells); experiment: as above; format: cell-based
Method: as §1

[3] = In-vivo antitumor activity test in human stromal tumor SHG44 (subcutaneous tumor block in nude mice); parameters: species or system BALB/C nude mice; conditions: for RTV (d22) / Tumor inhibition rate % / Body weight of animals (After a tumor is removed): SHG44; for Tumor inhibition rate % / Body weight of animals (After a tumor is removed): d22; for Body weight of animals (After a tumor is removed): in g (unit assumed)
Method: (§2) Animals: BALB/C nude mice (SPF grade), male, and 18-20 g. The compounds were firstly added with DMSO at a total amount of 4%, then added with Tween-80 at a total amount of 2% for assisting dissolution, then added with PEG300 at a total amount of 5%, and finally added with sterilized normal saline to be prepared into a solution at 1 mg/mL. Idasanutlin was firstly added with DMSO at a total amount of 4%, then added with Tween-80 at a total amount of 2% for assisting dissolution, then added with PEG300 at a total amount of 5%, and finally added with sterilized normal saline to be prepared into a solution at 2.5 mg/mL.
(§3) A well-grown human stromal tumor SHG44 mass was taken and aseptically cut into uniform small blocks of about 3 mm in size, and a right axilla of each mouse was subcutaneously inoculated with one block through a trocar. […] The animals were regrouped according to a tumor size. The animals with too large and too small tumors were sifted out. An average tumor volume in each group was approximately the same. An administration was started according to the following solution with an administration volume of 0.2 mL/20 g body weight. A long diameter a (mm) of the tumor and a short diameter b (mm) vertical to the tumor were measured by a digital display electronic caliper 2 times a week from day 9 of the inoculation. A tumor volume was calculated by the formula: TV=ab^2/2, and a relative tumor volume was calculated by the formula: RTV=Vt/Vo, wherein Vo was the obtained tumor volume measured at a cage separation (i.e. d1) and Vt was the tumor volume measured at each time. The animals were sacrificed 30 days after the inoculation (d22) and weighed, tumor mass was obtained by dissection and weighed, and the results were determined according to the following formula: […]

[4] = test system: human gastric carcinoma MGC803; experiment: In-vivo antitumor activity test in human gastric carcinoma MGC803 (subcutaneous tumor block in nude mice); parameters: species or system BALB/C nude mice; conditions: for RTV (d22) / Body weight of animals (After a tumor is removed) / Tumor inhibition rate %: MGC803; for Body weight of animals (After a tumor is removed) / Tumor inhibition rate %: d22
Method: as §2
as §3, with “gastric carcinoma MGC803” for “stromal”, “tumor” for “tumor SHG44”

[5] = test system: human esophageal cancer KYSE-150; experiment: In-vivo antitumor activity test in human esophageal cancer KYSE-150 (subcutaneous tumor block in nude mice); parameters: species or system BALB/C nude mice; conditions: for RTV (d22) / Body weight of animals (After a tumor is removed) / Tumor inhibition rate %: KYSE-150; for Body weight of animals (After a tumor is removed) / Tumor inhibition rate %: d22
Method: as §2
as §3, with “esophageal cancer KYSE-150” for “stromal”, “tumor” for “tumor SHG44”

hERG potassium channel = hERG potassium channel (Homo sapiens, UniProt Q12809); experiment: cell-based
hERG potassium channel, sequence (Q12809 whole entry): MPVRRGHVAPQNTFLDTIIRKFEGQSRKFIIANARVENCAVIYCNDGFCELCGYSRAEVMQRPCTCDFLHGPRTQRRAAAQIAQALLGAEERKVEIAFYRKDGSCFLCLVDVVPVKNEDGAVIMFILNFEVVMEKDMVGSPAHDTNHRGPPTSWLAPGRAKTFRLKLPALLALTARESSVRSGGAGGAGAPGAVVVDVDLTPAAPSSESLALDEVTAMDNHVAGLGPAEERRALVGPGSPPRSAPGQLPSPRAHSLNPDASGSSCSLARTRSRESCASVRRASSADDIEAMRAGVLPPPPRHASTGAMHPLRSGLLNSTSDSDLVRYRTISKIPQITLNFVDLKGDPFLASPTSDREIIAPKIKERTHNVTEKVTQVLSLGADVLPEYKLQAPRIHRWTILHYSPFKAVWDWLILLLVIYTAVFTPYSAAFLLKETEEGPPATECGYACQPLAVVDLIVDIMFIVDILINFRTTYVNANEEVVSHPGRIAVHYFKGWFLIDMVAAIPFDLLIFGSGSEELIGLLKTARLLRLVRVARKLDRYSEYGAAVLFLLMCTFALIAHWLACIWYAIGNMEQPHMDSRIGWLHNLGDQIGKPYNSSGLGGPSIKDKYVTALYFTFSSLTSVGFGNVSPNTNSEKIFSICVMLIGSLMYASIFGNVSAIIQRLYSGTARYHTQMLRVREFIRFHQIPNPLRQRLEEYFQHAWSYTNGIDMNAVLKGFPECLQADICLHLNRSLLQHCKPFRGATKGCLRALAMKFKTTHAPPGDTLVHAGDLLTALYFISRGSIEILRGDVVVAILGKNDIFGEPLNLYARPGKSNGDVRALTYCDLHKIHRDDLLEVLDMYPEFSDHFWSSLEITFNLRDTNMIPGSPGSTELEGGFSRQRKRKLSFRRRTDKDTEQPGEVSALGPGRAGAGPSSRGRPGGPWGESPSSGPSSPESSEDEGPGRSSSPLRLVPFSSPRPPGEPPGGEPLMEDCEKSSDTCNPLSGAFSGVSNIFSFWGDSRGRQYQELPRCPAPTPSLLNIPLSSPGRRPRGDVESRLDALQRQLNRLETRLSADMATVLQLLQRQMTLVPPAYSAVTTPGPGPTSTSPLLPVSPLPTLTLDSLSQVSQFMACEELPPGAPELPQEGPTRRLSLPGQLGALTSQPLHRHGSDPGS
Method: CHO-hERG cells were cultured in a 175-cm^2 culture flask. After a cell density reached a culture solution was removed, and the cells were washed once with 7 mL of phosphate buffered saline (PBS) and digested with 3 mL of detachin. After the complete digestion, 7 mL of a culture solution was added for neutralization, the mixture was centrifuged, a supernatant was sucked away, and then 5 mL of the culture solution was added for resuspension so as to ensure that the cell density was 2-5×10^6/mL.
Forming processes of single-cell high-impedance sealing and whole-cell mode were both automatically completed by a Qpatch instrument. After a whole-cell recording mode was obtained, cells were clamped at −80 millivolts. Before a depolarization stimulation of +40 millivolt for 5 seconds was given, a preset voltage of −50 millivolts was firstly given for 50 milliseconds, then repolarization was performed to −50 millivolt and maintained for 5 seconds, and then the voltage returned to −80 millivolts. […] At least 3 cells (n≥3) were tested per concentration.
20 mM of a compound stock was diluted in DMSO, and 10 μL of 20 mM of the compound stock was added to 20 μL of a DMSO solution and triply serially diluted to 6 DMSO concentrations. […] Experimental data was analyzed by a GraphPad Prism 5.0 software.

[6] = 10 mg/kg, Ipx5 each week for 2 continuous weeks

SMILES: COc1cc(C(=O)NCCOCCOCCOCCOCCC(=O)N[C@@H](C(=O)N[C@@H](CCCNC(N)=O)C(=O)Nc2ccc(COC(=O)N3CCN(C(=O)O[C@H]4CC[C@@]5(C)[C@H](CC[C@@H]6[C@@H]5[C@H](O)C(=O)[C@]5(C)[C@@H](c7ccc(=O)oc7)CC[C@]65O)C4)CC3)cc2)C(C)C)ccc1NC(=O)[C@@H]1N[C@@H](CC(C)(C)C)[C@](C#N)(c2ccc(Cl)cc2F)[C@H]1c1cccc(Cl)c1F [Compound I-1]
- IC50 ([1]; 72 h): 0.034 µM
- IC50 ([2]; 72 h): 0.007 µM
- in-vivo antitumor activity of the human stromal tumor SHG44 (in words) [3]: good in-vivo antitumor activity
- RTV (d22) [3, 6]: 2.34 ± 0.32
- Tumor inhibition rate % [3, 6]: 52.03%
- Body weight of animals (After a tumor is removed) [3, 6]: 24.78 ± 2.38
- in-vivo antitumor activity of the human gastric carcinoma MGC803 (in words) [4]: good in-vivo antitumor activity
- RTV (d22) [4, 6]: 2.45 ± 0.54
- Body weight of animals (After a tumor is removed) [4, 6]: 26.15 ± 1.14
- Tumor inhibition rate % [4, 6]: 38.54%
- in-vivo antitumor activity of the human esophageal cancer KYSE-150 (in words) [5]: good in-vivo antitumor activity
- RTV (d22) [5, 6]: 4.87 ± 0.92
- Body weight of animals (After a tumor is removed) [5, 6]: 24.51 ± 1.40
- Tumor inhibition rate % [5, 6]: 50.45%
- IC50 (hERG potassium channel): > 40 µM

- IC50 ([1]; Homo sapiens, HCT-116, CCK-8, 72 h, Table 1, read-out: IC50 HCT116): 1.06 µM
- IC50 ([2]; Homo sapiens, SW1990, CCK-8, 72 h, Table 1, read-out: IC50 SW1990): 2.98 µM
SMILES: COc1cc(C(=O)O)ccc1NC(=O)[C@@H]1N[C@@H](CC(C)(C)C)[C@](C#N)(c2ccc(Cl)cc2F)[C@H]1c1cccc(Cl)c1F [Idasanutlin, reference compound]
- RTV (d22) ([3]; 25 mg/kg, Igx14): 2.95 ± 0.41
- Tumor inhibition rate % ([3]; 25 mg/kg, Igx14): 39.59%
- Body weight of animals (After a tumor is removed) ([3]; 25 mg/kg, Igx14): 24.47 ± 1.66
- RTV (d22) ([4]; 25 mg/kg, Igx14): 2.74 ± 0.81
- Body weight of animals (After a tumor is removed) ([4]; 25 mg/kg, Igx14): 23.58 ± 1.56
- Tumor inhibition rate % ([4]; 25 mg/kg, Igx14): 31.36%
- RTV (d22) ([5]; 25 mg/kg, Igx14): 4.79 ± 0.41
- Body weight of animals (After a tumor is removed) ([5]; 25 mg/kg, Igx14): 24.03 ± 0.95
- Tumor inhibition rate % ([5]; 25 mg/kg, Igx14): 51.17%
